In PMC8297402, “Trifluoromethyl-substituted 3,5-bis(arylidene)-4-piperidones as potential anti-hepatoma and anti-inflammation agents by inhibiting NF-кB activation” (Journal of Enzyme Inhibition and Medicinal Chemistry, 2021):
Where two headings read alike, the source gives them in different places.

Tested on: TNF-α
Experiment: ELISA of TNF-α release in LPS-stimulated RAW264.7 cells
Type: cell-based, mouse
Conditions: Mus musculus
Summary of the method: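 RAW264.7 cells pretreated 2 h with compound at 5.0 μM (PDTC 30 μM as reference), then stimulated with LPS 1.0 μg/mL for a further 22 h. Secreted TNF-α and IL-6 in the culture media quantified by ELISA.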

O=C1C(=Cc2cccc(C(F)(F)F)c2)CN(S(=O)(=O)c2ccc(C(F)(F)F)cc2)CC1=Cc1cccc(C(F)(F)F)c1 [BAP 16]
inhibition at 5 µM (RAW264.7, BAPs (5 μM) + LPS (1 μg/mL), RAW264.7, ELISA, read-out: Inhibition rate TNF-α): ~83.2% | inhibition at 5 µM (RAW264.7, average of TNF-α and IL-6, 5 μM + LPS, RAW264.7, read-out: Inhibition rates against IL-6 and TNF-α cytokine release, average): 81.2%
